Data from ChEMBL document CHEMBL5523757, “Discovery, Synthesis, and Activity Evaluation of Novel Five-Membered Sulfur-Containing Heterocyclic Nucleosides as Potential Anticancer Agents In Vitro and In Vivo” (J Med Chem, 2024).

Tests used:
Type in all cases: functional, cell-based
HCT-116 = assay: Antiproliferative activity against human HCT-116 cells assessed as inhibition of cell growth incubated for 48 hrs by CCK-8 assay; conditions: Homo sapiens, HCT-116, 48 h
HeLa = assay: Antiproliferative activity against human HeLa cells assessed as inhibition of cell growth incubated for 48 hrs by CCK-8 assay; conditions: Homo sapiens, HeLa, 48 h
MCF7 = assay: Antiproliferative activity against human MCF7 cells assessed as inhibition of cell growth incubated for 48 hrs by CCK-8 assay; conditions: Homo sapiens, MCF7, 48 h
A549 = assay: Antiproliferative activity against human A549 cells assessed as inhibition of cell growth incubated for 48 hrs by CCK-8 assay; conditions: Homo sapiens, A549, 48 h
HepG2 = assay: Antiproliferative activity against human HepG2 cells assessed as inhibition of cell growth incubated for 48 hrs by CCK-8 assay; conditions: Homo sapiens, HepG2, 48 h
PANC-1 = assay: Antiproliferative activity against human PANC-1 cells assessed as inhibition of cell growth incubated for 48 hrs by CCK-8 assay; conditions: Homo sapiens, PANC-1, 48 h

Row | SMILES | IC50 (HCT-116) [µM] | IC50 (HeLa) [µM] | IC50 (MCF7) [µM] | IC50 (A549) [µM] | IC50 (HepG2) [µM] | IC50 (PANC-1) [µM]
1 | CCOC(=O)C[C@H]1CSC[C@]1(C(=O)OCC)n1cnc2c(Br)ncnc21 (racemic) | 30.1 | 14.4 | 19.4 |  |  | 
2 | CCOC(=O)C[C@@H]1CSC[C@]1(C(=O)OCC)n1cnc2c(N3CCCCC3)ncnc21 (racemic) | 32 | > 50 | 42.2 |  |  | 
3 | CCOC(=O)C[C@H]1CSC[C@]1(C(=O)OCC)n1cnc2c(Cl)ncnc21 (racemic) | 15.5 | 6.81 | 12 |  |  | 
4 | CCOC(=O)C[C@@H]1CSC[C@]1(C(=O)OCC)n1cnc2c(N(C)C)ncnc21 (racemic) | > 50 | > 50 | > 50 |  |  | 
5 | CCOC(=O)C[C@@H]1CSC[C@]1(C(=O)OCC)n1cnc2c(OC)ncnc21 (racemic) | > 50 | > 50 | > 50 |  |  | 
6 | CCOC(=O)C[C@@H]1CSC[C@]1(C(=O)OCC)n1cnc2c(-c3ccccc3)ncnc21 (racemic) | 25.1 | 42.9 | 19.4 |  |  | 
7 | CCOC(=O)C[C@H]1CSC[C@]1(C(=O)OCC)n1cnc2cncnc21 (racemic) | > 50 | > 50 | > 50 |  |  | 
8 | CCOC(=O)C[C@@H]1CSC[C@@]1(C(=O)OCC)n1cnc2c(Cl)nc(Cl)nc21 | 3.69 | 2.78 | 4.54 | 41.4 | 23.8 | 11.1
9 | CCOC(=O)C[C@H]1CSC[C@]1(C(=O)OCC)n1cnc2c(N(C)C)ncnc21 (racemic) | > 50 | > 50 | > 50 |  |  | 
10 | CCOC(=O)C[C@H]1CSC[C@]1(C(=O)OCC)n1cnc2c(OCc3ccccc3)ncnc21 (racemic) | 13.2 | 13.7 | 12.7 |  |  | 
11 | CCCSc1ncnc2c1ncn2[C@@]1(C(=O)OCC)CSC[C@H]1CC(=O)OCC (racemic) | 38.5 | > 50 | 23.5 |  |  | 
12 | CCOC(=O)C[C@@H]1CSC[C@]1(C(=O)OCC)n1cnc2c(Cl)nc(F)nc21 (racemic) | 15.9 | 14.5 | 27.9 |  |  | 
13 | CCOC(=O)C[C@H]1CS(=O)(=O)C[C@]1(C(=O)OCC)n1cnc2c(Cl)nc(Cl)nc21 | 11.2 | 7.67 | 16.2 |  |  | 
14 | CCOC(=O)C[C@H]1CSC[C@]1(C(=O)OC)n1cnc2c(Cl)ncnc21 (racemic) | 19.2 | 11.6 | > 50 |  |  | 
15 | CCOC(=O)C[C@@H]1CSC[C@]1(C(=O)OC)n1cnc2c(Cl)ncnc21 (racemic) | 31.8 | 12.5 | > 50 |  |  | 
16 | CCOC(=O)C[C@H]1CSC[C@]1(C(=O)OCC)n1cnc2c(N3CCCC3)nc(Cl)nc21 (racemic) | 46.6 | > 50 | 38.3 |  |  | 
17 | CCOC(=O)C[C@@H]1CSC[C@]1(C(=O)OCC)n1cnc2c(OCC)ncnc21 (racemic) | 19.8 | > 50 | > 50 |  |  | 
18 | CCOC(=O)C[C@@H]1CSC[C@]1(C(=O)OCC)n1cnc2cncnc21 (racemic) | > 50 | > 50 | > 50 |  |  | 
19 | CCOC(=O)C[C@H]1CSC[C@]1(C(=O)OCC)n1cnc2c(OCC)ncnc21 (racemic) | > 50 | > 50 | > 50 |  |  | 
20 | CCOC(=O)C[C@H]1CSC[C@]1(C(=O)OCC)n1cnc2c(N3CCOCC3)ncnc21 (racemic) | > 50 | > 50 | > 50 |  |  | 
21 | CCOC(=O)C[C@H]1CSC[C@]1(C(=O)OCC)n1cnc2c(N3CCCCC3)ncnc21 (racemic) | 22.8 | > 50 | 23.8 |  |  | 
22 | CCOC(=O)C[C@H]1CSC[C@]1(C(=O)OC(C)C)n1cnc2c(Cl)ncnc21 (racemic) | 14.7 | 9.99 | 13 |  |  | 
